Values joined by “and” are separate entries in the source; they are usually repeats but may differ in a detail not shown here. Identical values can stand only once.
Experiments:
Test in all cases: Kinase inhibition screen, cell-free 33P ATP assay at 10 μM
Format in all cases: biochemical
[1] = biological target: 140 purified human kinases (Homo sapiens, UniProt P53779)
Procedure, shortened: (§1)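 Radiometric ^33P ATP cell-free format with purified enzymes; both complexes run at 10 μM in duplicate, results plotted on a kinome map via HGNC symbols.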

[2] = biological target: 140 purified human kinases (Homo sapiens, UniProt O75716)
140 purified human kinases (Homo sapiens, UniProt O75716), sequence (O75716 whole entry): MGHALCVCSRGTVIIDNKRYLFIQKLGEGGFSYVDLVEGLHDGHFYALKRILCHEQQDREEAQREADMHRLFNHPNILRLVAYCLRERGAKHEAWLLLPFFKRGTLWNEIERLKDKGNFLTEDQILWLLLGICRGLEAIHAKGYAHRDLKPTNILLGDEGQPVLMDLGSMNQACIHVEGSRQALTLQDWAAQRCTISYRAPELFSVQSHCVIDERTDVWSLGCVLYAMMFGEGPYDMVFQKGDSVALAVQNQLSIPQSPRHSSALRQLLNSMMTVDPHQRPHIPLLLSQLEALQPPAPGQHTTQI
Procedure, shortened: as §1

[3] = biological target: T1, 140 purified human kinases (Homo sapiens, UniProt P52333)
T1 sequence (P52333 1-1124): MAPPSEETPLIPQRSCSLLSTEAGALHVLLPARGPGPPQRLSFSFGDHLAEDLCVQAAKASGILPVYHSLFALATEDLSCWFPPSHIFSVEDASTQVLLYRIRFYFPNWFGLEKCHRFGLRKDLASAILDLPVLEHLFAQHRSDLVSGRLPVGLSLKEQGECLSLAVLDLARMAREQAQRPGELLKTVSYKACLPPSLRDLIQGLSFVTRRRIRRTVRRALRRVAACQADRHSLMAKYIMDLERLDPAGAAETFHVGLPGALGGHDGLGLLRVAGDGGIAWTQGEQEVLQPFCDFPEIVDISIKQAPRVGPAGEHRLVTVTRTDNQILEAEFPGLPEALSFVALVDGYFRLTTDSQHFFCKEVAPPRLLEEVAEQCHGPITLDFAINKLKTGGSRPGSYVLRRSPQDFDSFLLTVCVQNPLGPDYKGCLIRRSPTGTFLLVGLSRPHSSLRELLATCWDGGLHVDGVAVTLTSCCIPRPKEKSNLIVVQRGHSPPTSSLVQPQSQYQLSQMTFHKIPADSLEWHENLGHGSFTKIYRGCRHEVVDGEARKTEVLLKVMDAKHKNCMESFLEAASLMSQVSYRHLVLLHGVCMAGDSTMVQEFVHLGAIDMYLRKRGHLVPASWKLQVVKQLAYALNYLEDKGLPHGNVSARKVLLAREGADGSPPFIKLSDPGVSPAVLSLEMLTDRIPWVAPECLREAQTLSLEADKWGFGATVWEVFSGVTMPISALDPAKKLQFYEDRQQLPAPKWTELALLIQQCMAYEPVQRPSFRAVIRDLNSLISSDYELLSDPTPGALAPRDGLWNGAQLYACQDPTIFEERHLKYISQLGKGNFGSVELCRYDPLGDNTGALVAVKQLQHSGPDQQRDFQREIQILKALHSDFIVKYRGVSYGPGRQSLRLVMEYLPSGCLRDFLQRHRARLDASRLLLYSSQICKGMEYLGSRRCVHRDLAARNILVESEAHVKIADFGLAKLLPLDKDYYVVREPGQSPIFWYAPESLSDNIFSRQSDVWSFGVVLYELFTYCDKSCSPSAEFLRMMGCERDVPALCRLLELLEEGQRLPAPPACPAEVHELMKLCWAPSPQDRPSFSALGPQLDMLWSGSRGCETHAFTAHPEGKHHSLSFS
Procedure, shortened: as §1

[4] = biological target: 140 purified human kinases (Homo sapiens, UniProt Q16584)
140 purified human kinases (Homo sapiens, UniProt Q16584), sequence (Q16584 whole entry): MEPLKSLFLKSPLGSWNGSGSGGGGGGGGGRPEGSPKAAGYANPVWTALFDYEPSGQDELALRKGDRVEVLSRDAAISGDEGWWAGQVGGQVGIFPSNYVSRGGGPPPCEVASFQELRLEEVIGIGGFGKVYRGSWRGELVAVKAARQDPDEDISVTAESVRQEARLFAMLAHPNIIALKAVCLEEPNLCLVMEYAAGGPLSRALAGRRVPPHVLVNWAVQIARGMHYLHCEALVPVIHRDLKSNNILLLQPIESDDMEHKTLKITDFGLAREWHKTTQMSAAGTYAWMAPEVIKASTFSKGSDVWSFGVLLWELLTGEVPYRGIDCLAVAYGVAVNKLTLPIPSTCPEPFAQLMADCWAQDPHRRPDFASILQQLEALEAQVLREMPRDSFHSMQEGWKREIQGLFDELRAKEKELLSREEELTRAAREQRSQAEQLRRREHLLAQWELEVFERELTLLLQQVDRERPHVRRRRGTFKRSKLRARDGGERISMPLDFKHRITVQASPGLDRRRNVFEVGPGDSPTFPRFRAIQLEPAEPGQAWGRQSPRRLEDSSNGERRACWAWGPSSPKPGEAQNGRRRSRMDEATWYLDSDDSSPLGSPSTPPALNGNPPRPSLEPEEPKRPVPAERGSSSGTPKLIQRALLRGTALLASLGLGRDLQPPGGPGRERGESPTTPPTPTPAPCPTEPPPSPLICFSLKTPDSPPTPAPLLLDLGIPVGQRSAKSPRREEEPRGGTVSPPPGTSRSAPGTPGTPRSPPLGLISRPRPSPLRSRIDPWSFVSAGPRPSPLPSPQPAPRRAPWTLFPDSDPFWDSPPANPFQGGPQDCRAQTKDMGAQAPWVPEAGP
Procedure, shortened: as §1

[5] = biological target: T2, 140 purified human kinases (Homo sapiens, UniProt P54762)
T2 sequence (P54762 18-984): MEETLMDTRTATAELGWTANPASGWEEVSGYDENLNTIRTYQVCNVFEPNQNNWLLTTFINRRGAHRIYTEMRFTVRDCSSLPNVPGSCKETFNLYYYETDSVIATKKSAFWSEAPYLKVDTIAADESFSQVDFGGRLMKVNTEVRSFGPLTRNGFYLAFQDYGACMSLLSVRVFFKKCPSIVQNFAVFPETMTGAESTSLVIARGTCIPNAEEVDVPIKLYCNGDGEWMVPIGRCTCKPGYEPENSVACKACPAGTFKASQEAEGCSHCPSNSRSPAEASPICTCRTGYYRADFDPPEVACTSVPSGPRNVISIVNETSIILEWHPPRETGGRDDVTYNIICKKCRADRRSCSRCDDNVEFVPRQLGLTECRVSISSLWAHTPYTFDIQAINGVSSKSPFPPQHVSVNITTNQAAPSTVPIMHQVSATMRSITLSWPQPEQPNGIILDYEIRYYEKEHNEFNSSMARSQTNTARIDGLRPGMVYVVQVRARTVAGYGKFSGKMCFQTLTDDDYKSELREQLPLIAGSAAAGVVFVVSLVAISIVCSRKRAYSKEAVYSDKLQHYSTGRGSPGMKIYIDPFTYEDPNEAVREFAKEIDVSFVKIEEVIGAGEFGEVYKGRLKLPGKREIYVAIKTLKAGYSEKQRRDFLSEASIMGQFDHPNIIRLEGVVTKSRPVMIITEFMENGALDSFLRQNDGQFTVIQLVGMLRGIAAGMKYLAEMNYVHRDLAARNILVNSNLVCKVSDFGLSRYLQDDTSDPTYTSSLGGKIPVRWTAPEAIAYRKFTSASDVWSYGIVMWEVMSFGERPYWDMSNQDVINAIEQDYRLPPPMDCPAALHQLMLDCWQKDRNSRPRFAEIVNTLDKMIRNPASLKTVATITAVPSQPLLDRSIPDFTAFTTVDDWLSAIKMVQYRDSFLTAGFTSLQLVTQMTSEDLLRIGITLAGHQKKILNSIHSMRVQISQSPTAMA
Procedure, shortened: as §1

140 purified human kinases (Homo sapiens, UniProt P53779), sequence (P53779 whole entry): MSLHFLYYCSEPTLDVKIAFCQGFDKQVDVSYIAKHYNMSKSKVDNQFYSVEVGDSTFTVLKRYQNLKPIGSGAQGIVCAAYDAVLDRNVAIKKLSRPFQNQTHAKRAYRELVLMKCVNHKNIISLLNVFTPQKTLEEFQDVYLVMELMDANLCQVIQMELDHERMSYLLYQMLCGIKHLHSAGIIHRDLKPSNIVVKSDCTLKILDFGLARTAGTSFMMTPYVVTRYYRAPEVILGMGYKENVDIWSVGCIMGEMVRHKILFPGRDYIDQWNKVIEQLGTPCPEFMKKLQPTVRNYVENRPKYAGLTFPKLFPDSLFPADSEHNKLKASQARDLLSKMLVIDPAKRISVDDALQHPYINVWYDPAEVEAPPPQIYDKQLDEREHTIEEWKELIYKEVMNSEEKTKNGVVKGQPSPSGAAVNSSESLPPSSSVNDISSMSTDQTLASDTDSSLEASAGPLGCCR

[Cu+2].[Cu+2].[Cu+2].c1ccc(-c2csc(NCCN(CCNc3nc(-c4ccccn4)cs3)CCNc3nc(-c4ccccn4)cs3)n2)nc1.c1ccc(-c2csc(NCCN(CCNc3nc(-c4ccccn4)cs3)CCNc3nc(-c4ccccn4)cs3)n2)nc1 [[L2Cu3]6+]
% Inhibition Run 1 ([1]; JNK3): 62% | % Inhibition Run 2 ([1]; JNK3): 41.6% | % Inhibition, Mean ([1]; JNK3): 52% | mean % activity ([1]; JNK3): 48% | % activity ([1]; JNK3, Run 1): 38% | % activity ([1]; JNK3, Run 2): 58.4% | % Inhibition Run 1 ([2]; MPSK1): 71.3% | % Inhibition Run 2 ([2]; MPSK1): 60% | % Inhibition, Mean ([2]; MPSK1): 66% | mean % activity ([2]; MPSK1): 34% | % activity ([2]; MPSK1, Run 1): 28.7% | % activity ([2]; MPSK1, Run 2): 40% | % Inhibition Run 1 ([3]; JAK3): 39.3% | % Inhibition Run 2 ([3]; JAK3): 44.6% | % Inhibition, Mean ([3]; JAK3): 42% | mean % activity ([3]; JAK3): 58% | % activity ([3]; JAK3, Run 1): 60.7% | % activity ([3]; JAK3, Run 2): 55.4% | % Inhibition Run 1 ([4]; MLK3): 94.9% | % Inhibition Run 2 ([4]; MLK3): 94.9% | % Inhibition, Mean ([4]; MLK3): 95% | mean % activity ([4]; MLK3): 5% | % activity ([4]; MLK3, Run 1): 5.1% | % activity ([4]; MLK3, Run 2): 5.1% | % Activity inhibition Mean ([4]; MLK3, 10 µM): 94.9% | % Activity inhibition Run 1 ([4]; MLK3, 10 µM): 94.9% | % Activity inhibition Run 2 ([4]; MLK3, 10 µM): 94.9% | % Activity remaining Run 1 ([4]; MLK3, 10 µM): 5.10% | % Activity remaining Run 2 ([4]; MLK3, 10 µM): 5.10% | % Activation, Mean value ([5]; EPH-B1): 14% | % Inhibition Run 1 ([5]; EPH-B1): -9.9% | % Inhibition Run 2 ([5]; EPH-B1): -17.3% | % Inhibition, Mean ([5]; EPH-B1): -14% | mean % activity ([5]; EPH-B1): 114% | % activity ([5]; EPH-B1, Run 1): 109.9% | % activity ([5]; EPH-B1, Run 2): 117.3% | % Activity Run 1 ([5]; EPH-B1, 10 µM): 109.90% | % Activity Run 2 ([5]; EPH-B1, 10 µM): 117.30%

CC(=O)[O-].CC(=O)[O-].CC(=O)[O-].CC(=O)[O-].CC(=O)[O-].CC(=O)[O-].[Zn+2].[Zn+2].[Zn+2].c1ccc(-c2csc(NCCN(CCNc3nc(-c4ccccn4)cs3)CCNc3nc(-c4ccccn4)cs3)n2)nc1.c1ccc(-c2csc(NCCN(CCNc3nc(-c4ccccn4)cs3)CCNc3nc(-c4ccccn4)cs3)n2)nc1 [[L2Zn3]6+]
% Inhibition, Mean ([1]; JNK3): 33% | % Inhibition, Run 1 / Run 2 ([1]; JNK3): 42% and 24% | mean % activity ([1]; JNK3): 67% | % activity ([1]; JNK3, duplicate runs): 58% and 76% | % Inhibition, Mean ([2]; MPSK1): 22% | mean % activity ([2]; MPSK1): 79% | % activity ([2]; MPSK1, duplicate runs): 71% and 86% | % Inhibition, Mean ([3]; JAK3): 17% | mean % activity ([3]; JAK3): 83% | % activity ([3]; JAK3, duplicate runs): 66% and 99% | % Inhibition, Mean ([4]; MLK3): 5% | % Inhibition, Run 1 / Run 2 ([4]; MLK3): 4% and 6% | mean % activity ([4]; MLK3): 95% | % activity ([4]; MLK3, duplicate runs): 96% and 94% | % Inhibition, Mean ([5]; EPH-B1): -0.2% | % Inhibition, Run 1 / Run 2 ([5]; EPH-B1): 4% and -4.6% | mean % activity ([5]; EPH-B1): 100% | % activity ([5]; EPH-B1, duplicate runs): 96% and 105%

Reference: PMC8222254, “Self-assembly of an anion receptor with metal-dependent kinase inhibition and potent in vitro anti-cancer properties” (Nature Communications, 2021)
